What was measured:
Type in all cases: cell-based, human
HCT-116 cells [1] = experiment: Proliferation inhibition assay of cancer cells (Test Example 1), HCT-116; conditions: HCT-116 cells, cultured for 4 days, Cell Titer-Glo, read-out: IC50 (μM) HCT, concentration for 50% inhibition of cell proliferation (Bulk IC50 value)
Description: (§1) HCT-116 cells (derived from human colon adenocarcinoma), HT-29 cells (derived from human colon cancer), and FaDu cells (derived from human hypopharynx cancer) were obtained from American Type Culture Collection (ATCC). […] After cells were seeded at 300-600 cells/well onto black μClear-plate 384 well (Greiner bio-one Cat. No. 781091), a test substance was added such that the final concentration of DMSO is 0.1%, and cultured for 4 days. […] A test shown in Test example 1 was carried out for compounds obtained in the Examples.

FaDu cells [2] = experiment: Proliferation inhibition assay of cancer cells (Test Example 1), FaDu; conditions: FaDu cells, cultured for 4 days, Cell Titer-Glo, read-out: IC50 (μM) FaDu, concentration for 50% inhibition of cell proliferation (Bulk IC50 value)
Description: as §1

HT-29 cells [3] = experiment: Proliferation inhibition assay of cancer cells (Test Example 1), HT-29; conditions: HT-29 cells, cultured for 4 days, Cell Titer-Glo, read-out: IC50 (μM) HT, concentration for 50% inhibition of cell proliferation (Bulk IC50 value)
Description: as §1

HCT-116 cells [4] = experiment: Inhibition assay of cancer cell sphere-forming ability (Test Example 2), HCT-116; conditions: HCT-116 cells, Ultra-Low Attachment plate, serum-free DMEM/F12 with B27, EGF, bFGF, insulin, 4 days, Cell Titer-Glo, read-out: IC50 (μM) HCT, concentration for 50% inhibition of cell proliferation (Sphere IC50 value)
Description: (§2) HCT-116 cells (derived from human colon adenocarcinoma), HT-29 cells (derived from human colon cancer), FaDu cells (derived from human hypopharynx cancer) were obtained from American Type Culture Collection (ATCC). […] HCT-116 cells, HT-29 cells, and FaDu cells were seeded onto 384 Well Black Clear Bottom Ultra-Low Attachment Microplate (Corning Cat. […] A test substance was added so that the final concentration of DMSO is 0.1%, and then cultured for 4 days. […] A test shown in Test example 2 was carried out for compounds obtained in the Examples.

FaDu cells [5] = experiment: Inhibition assay of cancer cell sphere-forming ability (Test Example 2), FaDu; conditions: FaDu cells, Ultra-Low Attachment plate, serum-free DMEM/F12 with B27, EGF, bFGF, insulin, 4 days, Cell Titer-Glo, read-out: IC50 (μM) FaDu, concentration for 50% inhibition of cell proliferation (Sphere IC50 value)
Description: as §2

HT-29 cells [6] = experiment: Inhibition assay of cancer cell sphere-forming ability (Test Example 2), HT-29; conditions: HT-29 cells, Ultra-Low Attachment plate, serum-free DMEM/F12 with B27, EGF, bFGF, insulin, 4 days, Cell Titer-Glo, read-out: IC50 (μM) HT, concentration for 50% inhibition of cell proliferation (Sphere IC50 value)
Description: as §2

SMILES	IC50 (HCT-116 cells [1]; Homo sapiens, HCT-116, 96 h)	IC50 (FaDu cells [2]; Homo sapiens, FaDu, 96 h)	IC50 (HT-29 cells [3]; Homo sapiens, HT-29, 96 h)	IC50 (HCT-116 cells [4]; Homo sapiens, HCT-116, 96 h)	IC50 (FaDu cells [5]; Homo sapiens, FaDu, 96 h)	IC50 (HT-29 cells [6]; Homo sapiens, HT-29, 96 h)	IC50 (HT-29 cells [3])	IC50 (HT-29 cells [6])	IC50 (HCT-116 cells [1])	IC50 (FaDu cells [2])	IC50 (HCT-116 cells [4])	IC50 (FaDu cells [5])
CCN(CCOC)Cc1cc2c(s1)C(=O)c1cccnc1C2=O [Example 6, 2-{[ethyl(2-methoxyethyl)amino]methyl}thieno[2,3-g]quinoline-4,9-dione]	0.39 µM	0.41 µM	0.93 µM	0.2 µM	0.33 µM	0.63 µM						
CC1CNCC(C)(C(=O)c2cc3c(s2)C(=O)c2ncccc2C3=O)C1 (stereo not drawn) [Example 39, 2-[(3,5-dimethylpiperidin-5-yl)carbonyl]thieno[3,2-g]quinoline-4,9-dione]	0.38 µM	0.09 µM	3.71 µM	0.35 µM	0.45 µM	0.55 µM						
O=C1c2cnccc2C(=O)c2sc(CN(CC(F)F)C(=O)C3CCCCC3)cc21 [Example 28, N-(2,2-difluoroethyl)-N-((4,9-dioxo-4,9-dihydrothieno[2,3-g]isoquinolin-2-yl)methyl)cyclohexanecarboxamide]	0.47 µM	0.08 µM	0.63 µM	0.57 µM	0.09 µM	0.59 µM						
COC(C)c1cc2c(s1)C(=O)c1ncccc1C2=O (stereo not drawn) [Example 38, 2-(1-methoxyethyl)thieno[3,2-g]quinoline-4,9-dione]	0.55 µM	0.44 µM	0.66 µM	0.55 µM	0.28 µM	0.59 µM						
C[C@@H]1CN(C(=O)c2cc3c(s2)C(=O)c2nccnc2C3=O)C[C@H](C)O1 [Example 58, 7-{[(2R,6S)-2,6-dimethylmorpholin-4-yl]carbonyl}thieno[2,3-g]quinoxaline-5,9-dione]	0.64 µM	3.71 µM	7.06 µM	0.56 µM	0.76 µM	5.97 µM						
CC(=O)c1cc2c(o1)C(=O)c1ncccc1C2=O [Example 50, 2-acetylfuro[3,2-g]quinoline-4,9-dione]	0.47 µM	0.47 µM	0.59 µM	0.26 µM	0.17 µM	0.58 µM						
CC(O)c1cc2c(s1)C(=O)c1ncccc1C2=O (stereo not drawn) [Example 37, 2-(1-hydroxyethyl)thieno[3,2-g]quinoline-4,9-dione]	0.06 µM	0.08 µM	0.62 µM	0.06 µM	0.06 µM	0.49 µM						
CCN(Cc1ccncc1)Cc1cc2c(s1)C(=O)c1cccnc1C2=O [Example 7, 2-{[ethyl(pyridin-4-ylmethyl)amino]methyl}thieno[2,3-g]quinoline-4,9-dione]	0.4 µM	0.4 µM		0.51 µM	0.36 µM		2.64 µM	3.04 µM				
CCN(Cc1cc2c(s1)C(=O)c1cccnc1C2=O)C1CCCCC1 [Example 5, 2-{[cyclohexyl(ethyl)amino]methyl}thieno[2,3-g]quinoline-4,9-dione]	0.45 µM	0.54 µM	0.92 µM	0.39 µM	0.5 µM	0.57 µM						
CC(O)c1cc2c(o1)C(=O)c1ncccc1C2=O (stereo not drawn) [Example 51, 2-(1-hydroxyethyl)furo[3,2-g]quinoline-4,9-dione]	0.39 µM	0.49 µM	0.84 µM	0.09 µM	0.08 µM	0.43 µM						
O=C1c2cnccc2C(=O)c2sc(N3CCOCC3)cc21 [Example 32, 2-(morpholin-4-yl)thieno[2,3-g]isoquinoline-4,9-dione]	6.56 µM	2.15 µM	> 10 µM	7.7 µM	1.25 µM	> 10 µM						
CC(=O)c1cc2c(o1)C(=O)c1ccncc1C2=O [Example 44, 2-acetylfuro[2,3-g]isoquinoline-4,9-dione]	0.06 µM	0.03 µM	0.51 µM	0.06 µM	0.04 µM	0.08 µM						
CCN(Cc1cc2c(o1)C(=O)c1cccnc1C2=O)C(=O)CC(C)C [Example 9, N-[(4,9-dioxo-4,9-dihydrofuro[2,3-g]quinolin-2-yl)methyl]-N-ethyl-3-methylbutanamide]	0.53 µM	0.6 µM	> 10 µM	0.28 µM	0.1 µM	0.61 µM						
O=C1c2cnccc2C(=O)c2sc(CO)cc21 [Example 14, 2-(1-hydroxymethyl)thieno[2,3-g]isoquinoline-4,9-dione]	0.06 µM	0.03 µM	0.48 µM	0.09 µM	0.02 µM	0.09 µM						
CC(=O)c1cc2c(s1)C(=O)c1ncccc1C2=O [Example 36, 2-acetylthieno[3,2-g]quinoline-4,9-dione]	0.1 µM	0.09 µM	0.73 µM	0.07 µM	0.05 µM	0.25 µM						
CCN(Cc1ccncc1)Cc1cc2c(s1)C(=O)c1cccnc1C2=O [Example 8, 2-{[ethyl(pyridin-4-ylmethyl)amino]methyl}thieno[2,3-g]quinoline-4,9-dione]							0.83 µM	0.6 µM	0.38 µM	0.37 µM	0.41 µM	0.32 µM
CCN(Cc1cc2c(o1)C(=O)c1cccnc1C2=O)S(=O)(=O)CC(C)C [Example 10, N-[(4,9-dioxo-4,9-dihydrofuro[2,3-g]quinolin-2-yl)methyl]-N-ethyl-2-methylpropane-1-sulfonamide]	0.5 µM	0.5 µM	6.14 µM	0.38 µM	0.09 µM	0.53 µM						
CC(O)c1cc2c(o1)C(=O)c1cccnc1C2=O (stereo not drawn) [Example 43, 2-(1-hydroxyethyl)furo[2,3-g]quinoline-4,9-dione]	0.62 µM	0.66 µM	5.62 µM	0.51 µM	0.33 µM	0.6 µM						
CC(O)c1cc2c(o1)C(=O)c1ccncc1C2=O (stereo not drawn) [Example 45, 2-(1-hydroxyethyl)furo[2,3-g]isoquinoline-4,9-dione]	0.06 µM	0.03 µM	0.52 µM	0.06 µM	0.03 µM	0.08 µM						
CCOC(=O)/C=C/c1cc2c(s1)C(=O)c1ccncc1C2=O [Example 60, ethyl (E)-3-(4,9-dioxo-4,9-dihydrothieno[2,3-g]isoquinolin-2-yl)acrylate]	2.71 µM	0.75 µM	> 10 µM	7.41 µM	0.83 µM	8.98 µM						
CC(=O)c1oc2c(c1C(=O)N1CCOCC1)C(=O)c1cnccc1C2=O [Example 47, 2-acetyl-3-(morpholin-4-carbonyl)furo[2,3-g]isoquinoline-4,9-dione]	0.36 µM	0.05 µM	0.41 µM	0.26 µM	0.05 µM	0.17 µM						
C#Cc1cc2c(s1)C(=O)c1ccncc1C2=O [Example 61, 2-ethynylthieno[2,3-g]isoquinoline-4,9-dione]	0.19 µM	0.05 µM	0.54 µM	0.28 µM	0.05 µM	0.24 µM						
